Assay results taken from patent US6906205B2, “Spiro and dispiro 1,2,4-trioxolane antimalarials” (Medicines for Malaria Venture MMV, priority 2002, dated 2005).
≈ marks a conversion by molar mass, not a printed value.

What was measured:
[1] = system: P. falciparum K1 strain (Thailand resistant to chloroquine); test: semiautomated microdilution assay, [3H]-hypoxanthine incorporation, K1 strain; assay type: cell-based, Plasmodium falciparum; settings: K1 strain, 72 h incubation
Method in brief: (§1)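 Intraerythrocytic stages from unsynchronised stock cultures are exposed to test compounds in a semiautomated microdilution format, and fifty percent inhibitory concentrations are then fitted by logit regression.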

[2] = system: P. falciparum NF54 strain (sensitive to standard antimalarials); test: semiautomated microdilution assay, [3H]-hypoxanthine incorporation, NF54 strain; assay type: cell-based, Plasmodium falciparum; settings: NF54 strain, 72 h incubation
Method in brief: as §1

[3] = system: ANKA strain of P. berghei; test: single dose STI in vivo screen in infected mice; set-up: species or system Plasmodium berghei; settings: for Activity (%) 3 mg/kg SSV po / Activity (%) 10 mg/kg SSV po / Activity (%) po / Activity (%) sc / Activity (%) SSVpo: percent reduction in parasitemia day 3 post-infection; for Activity (%) 10 mg/kg SSV po / Survival (days) 10 mg/kg SSV po: single 10 mg/kg po in SSV; for Activity (%) po / Survival (days) po: single 10 mg/kg po in 3% ethanol and 7% Tween 80; for Activity (%) po / Activity (%) sc / Activity (%) SSVpo: mice; for Activity (%) sc / Survival (days) sc: single 10 mg/kg sc in 3% ethanol and 7% Tween 80; for Activity (%) SSVpo: single po dose in standard suspending vehicle (SSV); for Survival (days) po / Survival (days) sc / Survival (days) SSVpo: untreated control 5.6 ± 0.3; for Survival (days) SSVpo: single po dose in SSV
Method in brief: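 Groups of 3-5 Moro SPF or NMRI mice infected with the ANKA strain of P. berghei received a single dose of trioxolane on day one post-infection. The compound was given in 3% ethanol and 7% Tween 80 or in SSV (0.5% w/v CMC, 0.5% v/v benzyl alcohol, 0.4% v/v Tween 80, 0.9% w/v sodium chloride in water). Antimalarial activity was scored as percent reduction in parasitemia on day three and as survival time versus untreated controls. Survival to day 30 counted as cure.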

[4] = system: Schistosoma mansoni 21-day-old schistosomules; test: effect on 21-day-old schistosomules in mice; assay type: in vivo; settings: single 200 mg/kg per os, female mice
Experimental: All groups were killed 4 weeks after treatment and the liver and intestine were removed and separated. The liver and intestine were compressed and alive male and female worms could be seen and counted. The effect of the compounds was evaluated by mean total and female worm burden.

[5] = system: Schistosoma mansoni adult schistosomes (49-day-old); test: effect on adult schistosomes (49-day-old) in mice; assay type: in vivo; settings: for % reduction of adult worms growth at day 49 after per os application of 400 mg/kg, TWR (%) / adult worms at day 49, per os 400 mg/kg, DEAD WORM (%): single 400 mg/kg per os
Experimental: Mice were infected with 100 Schistosoma mansoni cercariae […]. Each group was treated per os with OZ compounds at single doses of 200, 400, and 600 mg/kg. […] All groups were killed 4 weeks after treatment and the liver and intestine were removed and separated. The liver and intestine were compressed and alive male and female worms could be seen and counted.

SMILES | IC50 (ng/ml) K1 [1] [ng/mL] | IC50 (ng/ml) NF54 [2] [ng/mL] | Activity (%) 3 mg/kg SSV po ([3]; single 3 mg/kg po in SSV) [%] | Activity (%) 10 mg/kg SSV po [3] [%] | Survival (days) 10 mg/kg SSV po [3] [days] | % reduction of schistosomule growth at day 21 after per os application of 200 mg/kg, FWR (%) [4] [%] | % reduction of schistosomule growth at day 21 after per os application of 200 mg/kg, TWR (%) [4] [%] | % reduction of adult worms growth at day 49 after per os application of 400 mg/kg, TWR (%) [5] | adult worms at day 49, per os 400 mg/kg, DEAD WORM (%) [5] | Activity (%) po [3] | Activity (%) sc [3] | Activity (%) SSVpo [3] [%] | Survival (days) po [3] | Survival (days) sc [3] | Survival (days) SSVpo [3] [days] | Survival (days) 3 mg/kg SSV po ([3]; single 3 mg/kg po in SSV) [days] | % reduction of adult worms growth at day 49 after per os application of 200 mg/kg, TWR (%) ([5]; single 200 mg/kg per os) | adult worms at day 49, per os 200 mg/kg, DEAD WORM (%) ([5]; single 200 mg/kg per os) | % reduction of adult worms growth at day 49 after per os application of 600 mg/kg, TWR (%) ([5]; single 600 mg/kg per os) | adult worms at day 49, per os 600 mg/kg, DEAD WORM (%) ([5]; single 600 mg/kg per os)
O=C(O)C1CCN(C(=O)C[C@H]2CC[C@]3(CC2)OO[C@]2(O3)C3CC4CC(C3)CC2C4)CC1 [OZ312] | 19 (≈ 0.0438 µM) | 27 (≈ 0.0623 µM) | 13 | 43 | 7.2 | 93 | 94 | 16% | 9% |  |  |  |  |  |  |  |  |  |  | 
CON=C1CCC2(CC1)OOC1(O2)C2CC3CC(C2)CC1C3 (stereo not drawn) [OZ15] | 0.60 (≈ 0.00195 µM) | 1.0 (≈ 0.00325 µM) |  |  |  | 70 | 63 | 0% | 10% | 99.8% | 99.9% | 88 | 7.4 days | 8.2 days | 6.8 |  |  |  |  | 
CC1(C)COC2(CCC3(CC2)OOC2(CC(C)(C)CC(C)(C)C2)O3)OC1 [OZ36] | 24 (≈ 0.0651 µM) | 62 (≈ 0.168 µM) |  |  |  | 12 | 16 | 0/0% | 0/0% | 0/NA/0% | 0/NA/0% |  | 5.7/NA/5.7 days | 5.7/NA/5.7 days |  |  |  |  |  | 
O=C(O)C(=O)NC[C@H]1CC[C@]2(CC1)OO[C@]1(O2)C2CC3CC(C2)CC1C3 [OZ360] | 58 (≈ 0.159 µM) | 59 (≈ 0.161 µM) | 0 | 38 | 6.8 | 13 | 17 | 0/0% | 0/0% |  |  |  |  |  |  | 6.2 |  |  |  | 
C1CC2(CCN1)OOC1(O2)C2CC3CC(C2)CC1C3.Cl (stereo not drawn) [OZ80] | 0.15 | 0.34 |  |  |  | 75 | 79 |  |  | 59% | 84% |  | 6.3 days | 7.7 days |  |  | 0 | 3 |  | 
O=[N+]([O-])c1ccc(NN=C2CCC3(CC2)OOC2(O3)C3CC4CC(C3)CC2C4)c([N+](=O)[O-])c1 (stereo not drawn) [OZ29] | 9.7 (≈ 0.0212 µM) | 13 (≈ 0.0284 µM) |  |  |  | 20 | 28 | 0/0% | 0/0% | 0/NA/0% | 0/NA/0% |  | 5.0/NA/5.0 days | 5.0/NA/5.0 days |  |  |  |  |  | 
CC(C)(C)C1CCC2(CC1)OOC1(O2)C2CC3CC(C2)CC1C3 (stereo not drawn) [OZ18] | 63 (≈ 0.197 µM) | 84 (≈ 0.262 µM) |  |  |  | 9 | 12 | 0/0% | 0/0% | 0/NA/0% | 0/NA/0% |  | 5.0 days | 5.3 days |  |  |  |  |  | 
CCCC1CCC2(CC1)OOC1(O2)C2CC3CC(C2)CC1C3 (stereo not drawn) [OZ25] | 1.1 (≈ 0.00359 µM) | 2.1 (≈ 0.00685 µM) |  |  |  | 84 | 86 | 46% | 34% | 99.9% | 99.97% | 96 | 8.4 days | 16.5 days | 7.2 |  |  |  |  | 
O=C(O)CNC[C@H]1CC[C@]2(CC1)OO[C@]1(O2)C2CC3CC(C2)CC1C3 [OZ309] | 11 (≈ 0.0313 µM) | 17 (≈ 0.0484 µM) | 86 |  | 8.8 | 100 | 97 | 19% | 17% |  |  |  |  |  |  |  |  |  |  | 
Oc1ccc([C@H]2CC[C@]3(CC2)OOC2(O3)C3CC4CC(C3)CC2C4)cc1 (stereo partly drawn) [OZ288] | 1.7 (≈ 0.00477 µM) | 2.7 (≈ 0.00757 µM) | 82 |  | 11.0 | 96 | 95 | 52% | 45% |  |  |  |  |  |  |  |  |  |  | 
O=C1CN(C(=O)C[C@H]2CC[C@]3(CC2)OO[C@]2(O3)C3CC4CC(C3)CC2C4)CCN1 [OZ296] | 0.60 (≈ 0.00148 µM) | 0.89 (≈ 0.0022 µM) | 90 |  | 10.0 | 85 | 85 | 1% | 13% |  |  |  |  |  |  |  |  |  |  | 
O=C1CCC2(CC1)OOC1(CCCCCCCCCCC1)O2 [OZ21] | 14 (≈ 0.0451 µM) | 25 (≈ 0.0805 µM) |  |  |  | 20 | 18 | 0/0% | 0/0% | 0/NA/0% | 0/NA/0% |  | 5.0 days | 6.0 days |  |  |  |  |  | 
C1COC2(CCC3(CC2)OOC2(O3)C3CC4CC(C3)CC2C4)O1 (stereo not drawn) [OZ10] | 0.40 (≈ 0.00124 µM) | 0.67 (≈ 0.00208 µM) |  |  |  | 73 | 66 | 28% | 13% | 99.6% | 99.98% |  | 8.9 days | 10.5 days |  |  |  |  | 21 | 23
